Assay results taken from patent publication US11306098B2, “Substituted pyrrolo[1,2-a]pyrazines and pyrrolo[1,2-a][1,4]diazepines as TREX1 inhibitors” (VENENUM BIODESIGN, LLC, priority 2019, dated 2022).
pIC50: −log10 of the molar value.

Experiments:
[1] = system: interferon stimulated genes (ISGs) in THP1 Dual cells; assay: RT-qPCR assay of interferon stimulated gene expression; assay type: cell-based, human; conditions: substance alone, 24 hours, normalized to GAPDH, unstimulated control = 1
Text: Example D is a cell based assay that measures the increase in the expression of interferon stimulated genes (ISG) by RT-qPCR that are induced by TREX1 inhibitors when THP1 Dual™ cells are transfected with double-stranded DNA. The double stranded DNA used to transfect cells was VACV-70 (Invivogen), a 70 base pair oligonucleotide containing viral DNA motifs (Unterholzner L. et al., 2010. IFI16 is an innate immune sensor for intracellular DNA. Nat Immunol. 11(11):997-1004). Activation of cGAS-STING pathway in THP1 Dual™ cells increases the expression of ISGs.
The RT-qPCR assay was used to assess the ability of TREX1 inhibitors to enhance the expression of interferon stimulated genes (ISGs) in cells transfected with double-stranded DNA. The double stranded DNA used to transfect cells was VACV-70 (Invivogen), a 70 base pair oligonucleotide containing viral DNA motifs (Unterholzner L. et al., 2010. IFI16 is an innate immune sensor for intracellular DNA. Nat Immunol. 11(11):997-1004). Human THP1 Dual™ cells (Invivogen), were treated with test compound in the presence or absence of 1,200 ng/mL VACV-70, or with VACV-70 alone, for 24 hours. Cells were harvested by centrifugation and washed with phosphate buffer saline. Total RNA was isolated using Qiagen RNeasy mini kit. Genomic DNA was degraded using Thermo Scientific DNase 1 kit. Total RNA was quantified using a Nanodrop spectrophotometer. Using equal amounts of RNA, cDNA was synthesized using Invitrogen Superstrand III First Strand synthesis kit. Target and reference gene expression levels were determined by RT-qPCR using TaqMan gene expression assays and a Stratagene Mx3005P QPCR system (all reagents were from TaqMan, Applied Biosystems). Data were analyzed by the Comparative CT method. GAPDH was used for normalization. Target genes that were analyzed included interferon stimulated genes (INF-β, CXCL10, IFIT1, IFIT2, IFIT3, IFI44, and IFI44L).

[2] = system: THP1 Dual cells (ISRE Lucia reporter, cGAS-STING pathway); assay: THP1 monocyte assay, ISRE Lucia luciferase reporter; assay type: cell-based, human; conditions: 48 hours, luciferase signal versus control wells without compound
Text: Example C is a cell-based assay for TREX1 inhibitors using THP1 Dual™ cells (Invivogen), a human monocyte cell line that has stable integration of an Interferon Stimulated Response Element (ISRE) Lucia reporter gene. The Lucia gene encodes a secreted luciferase reporter protein, under the control of an ISG54 minimal promoter in conjunction with five IFN-stimulated response elements. Activation of the cGAS-STING pathway in THP1 Dual™ cells leads to enhanced luciferase secretion and increased luminescence.
A cell-based assay was established using THP1 Dual™ cells (Invivogen), a human monocyte cell line that has stable integration of an Interferon Stimulated Response Element (ISRE) Lucia reporter gene. The Lucia gene encodes a secreted luciferase reporter protein, under the control of an ISG54 minimal promoter in conjunction with five IFN-stimulated response elements. Activation of the cGAS-STING pathway in these cells leads to enhanced luciferase secretion. The assay was conducted in standard 384-well white tissue culture plates. Cells (25,000 in 25 μL RPMI 1640 containing 10% Heat-Inactivated FBS, 1× Glutagro, 10 mM HEPES, 1 mM sodium pyruvate, 1× Pen/Strep, 100 μg/mL Normocin, 100 μg/mL Zeocin, 10 μg/mL Blasticidin) were added to the plate followed by 25 μL of compound in the same media+0.2% DMSO. The assay was incubated for 48 hours at 37° C. in 5% CO2. An aliquot of 5 μl was removed to combine with 12.5 μL of the luciferase detection reagent, QUANTI-Luc™ Gold (Invivogen) in a white 384-well plate. The luminescent signal was then read using an EnVision plate reader (Perkin Elmer). The fold activation was calculated by dividing the signal in wells containing test compound by the signal in the control wells without compound (see Table 7).

murine TREX1 = murine TREX1 (Mus musculus (Mouse), UniProt Q91XB0); assay: TREX1 Exonuclease Assay (murine enzyme); assay type: biochemical; conditions: murine TREX1 1 nM, FAM/BHQ1-labeled DNA oligonucleotide
Sequence of murine TREX1 (Q91XB0 1-242): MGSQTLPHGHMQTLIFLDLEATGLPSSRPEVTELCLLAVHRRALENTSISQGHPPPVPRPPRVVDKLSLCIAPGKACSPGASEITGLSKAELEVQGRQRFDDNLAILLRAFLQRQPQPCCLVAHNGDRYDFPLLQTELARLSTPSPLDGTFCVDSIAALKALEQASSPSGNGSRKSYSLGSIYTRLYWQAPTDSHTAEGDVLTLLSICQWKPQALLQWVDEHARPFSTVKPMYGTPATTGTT
Procedure: (§1) The TREX1 Exonuclease assay is an exemplary in vitro assay for measuring the activity of the TREX1 inhibitors of the present invention. In this assay, TREX1 exonuclease activity was evaluated by measuring the increase in fluorescence resulting from TREX1-catalyzed removal of a quencher from the 3′ end of a FAM-labeled DNA oligonucleotide (5′FAM-CCA CGA GAG CGT-BHQ1-3′). The assay was conducted using Wild Type (WT) human or murine TREX1 enzyme constructs corresponding to amino acids 55-297 of UniProt ID Q9NSU2-1 (SEQ ID NO: 1), or amino acids 1-242 of UniProt ID Q91XB0-1 (SEQ ID NO: 2), respectively. See, e.g., Example A.
(§2) For human TREX1, the nucleotide sequence of the gene construct was codon optimized for expression in the bacterial host. The sequence was incorporated into the pMAL-c5e vector (NEB) downstream of a solubility-promoting MBP (maltose binding protein) fusion partner. The fusion protein product was expressed in E. coli strain BL21 (DE3) (Millipore) and purified in a series of chromatographic steps. Initial steps were conducted using a dextrin sepharose affinity column followed by a Q-sepharose ion exchange column (both GE Healthcare). After the second column the MBP partner was removed by incubation with enterokinase (NEB). Further purification was carried out with the second application of a Q-sepharose column followed by a Superdex 75 (GE Healthcare) size exclusion column. Finally, a heparin sepharose column (GE Healthcare) was applied to remove contaminating nucleotides. Similar methods were used in the preparation of the murine TREX1 enzyme and are described in Example B set forth below.
(§3) To evaluate the effect of compounds on TREX1 activity, test compounds were serially diluted (11-point, 3-fold) from 10 mM stock solutions and delivered to 384-well low-volume assay plates in 80 nL DMSO using an acoustic dispenser. Next, 4 μL of human TREX1 (0.5 nM), or murine TREX1 (1 nM), diluted in assay buffer (20 mM Tris pH 7.5, 5 mM MgCl2, 100 μg/mL BSA, 0.002% Triton X-100, 2 mM DTT), was added to the assay plate. After incubating for 30 minutes, 4 μL of labeled DNA oligonucleotide (500 nM) in assay buffer was added to initiate TREX1 exonuclease activity. The reaction was allowed to proceed for 45 minutes at room temperature prior to the addition of 4 μL of 150 mM EDTA to halt TREX1 activity. Assay plates were equilibrated for an additional 30 minutes and read on an EnVision Plate Reader (Perkin Elmer) to measure fluorescence emission at 535 nm following excitation at 485 nm. Fluorescence was plotted as a function of log molar compound concentration and fit to four-parameter dose-response equation to determine compound IC50.

human TREX1 = human TREX1 (Homo sapiens (Human), UniProt Q9NSU2); assay: TREX1 Exonuclease Assay (human enzyme); assay type: biochemical; conditions: human TREX1 0.5 nM, FAM/BHQ1-labeled DNA oligonucleotide
Sequence of human TREX1 (Q9NSU2 1-242): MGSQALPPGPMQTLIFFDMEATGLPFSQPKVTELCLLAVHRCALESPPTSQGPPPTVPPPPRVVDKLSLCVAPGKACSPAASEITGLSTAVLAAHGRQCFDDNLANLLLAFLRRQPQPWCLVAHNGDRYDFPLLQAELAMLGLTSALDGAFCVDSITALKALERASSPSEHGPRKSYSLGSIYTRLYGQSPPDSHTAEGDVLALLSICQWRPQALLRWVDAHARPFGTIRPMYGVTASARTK
Procedure: as §1, §2, §3

## N[C@@H]1C[C@H]2C(=O)N([C@H](CCc3nnn[nH]3)C(=O)NCc3ccc(Cl)c(Cl)c3)CCC(CCc3ccccc3)N2C1 (stereo partly drawn) [Example 36]
[1]
  CXCL10 expression: 2
  IFI44L expression: 16
  IFI44 expression: 20
  IFIT1 expression: 8
  IFIT2 expression: 26
  IFIT3 expression: 16
  IFN-β expression: 3
[2]
  Fold activation @ 10 μM: 7
Murine TREX1
  pIC50: > 6.00
Human TREX1
  pIC50: > 6.00

## N[C@@H]1C[C@H]2C(=O)N([C@H](CC(=O)O)C(=O)NCc3ccc(Cl)c(Cl)c3)CCC(CCc3ccccc3)N2C1 (stereo partly drawn) [Example 15]
[1]
  CXCL10 expression: 1
  IFI44L expression: 20
  IFI44 expression: 20
  IFIT1 expression: 10
  IFIT2 expression: 32
  IFIT3 expression: 20
  IFN-β expression: 5
[2]
  Fold activation @ 10 μM: 2
Murine TREX1
  pIC50: > 6.00
Human TREX1
  pIC50: > 6.00

## NC(=O)CC[C@H](C(=O)NCc1ccc(Cl)c(Cl)c1)N1CCC(CCc2ccccc2)N2C[C@H](N)C[C@H]2C1=O (stereo partly drawn) [Example 16]
[1]
  CXCL10 expression: 2
  IFI44L expression: 15
  IFI44 expression: 14
  IFIT1 expression: 11
  IFIT2 expression: 41
  IFIT3 expression: 25
  IFN-β expression: 6
[2]
  Fold activation @ 10 μM: 4
Murine TREX1
  pIC50: > 6.00
Human TREX1
  pIC50: > 6.00
